Laboratory results reported in patent US20240109855A1, “ANTI-QUORUM SENSING, ANTI-BIOFILM, AND INFLAMMATION ATTENUATING COMPOUNDS, COMPOSITIONS, AND METHODS OF USING SAME” (priority 2021, published 2024).
Entries after “also recorded” stand apart in the source; their conditions may differ.

Tests used:
[1] = tested on: Chromobacterium violaceum (CV026); test: Quorum sensing inhibition test with bio-reporter CV026 (TLC overlay); type: cell-based; conditions: for QSI activity against CV026, in words: running text; for Degree of QSI of CV026: Table 1, coumaperine derivatives, 40 mM in ~20 μL acetonitrile dried on TLC plate, overnight, color intensity; as to Degree of QSI of CV026: key: −: no inhibition; +: low inhibition; ++: medium inhibition; +++: strong inhibition; as to Degree of quorum sensing inhibition (QSI), CV026: key: −: no inhibition; +: low inhibition; ++: medium inhibition; +++: strong inhibition
Procedure: (§1) TLC preparation: all derivatives were dissolved in 100% acetonitrile to a concentration of 40 mM. Then placed 20 μlon the same spot on the TLC and let the solvent evaporate before use. CV026: few colonies were transferred to liquid LB (Lenox) for overnight incubation at 30° C. in a 45 degree in orbital shaker. At the O.D. 0.8 3 ml of the starter was added to preheated soft LB agar containing 500 nM of 3-oxo-C6 (Sigma-Aldrich). The mixture was then loaded on the TLC in a glass plate for O.N. incubation in 30° C. The next day inhibition zone was measured, while QS is taking place bacteria produce purple pigment, and when QS is inhibited no pigment is produced. KYC55 (pJZ372) (pJZ384) (pJZ410): 20 μl from the frozen stock into 25 ml AT media (AT buffer×20: 1.57 M KH2PO4 pH=7.3. AT salts mix×20: 300 mM (NH4)2SO4, 13 mM MgSO4, 1.4 mM CaCl2, 0.4 mM FeSO4·7H2O, 0.26 mM MnSO4·H2O. AT media: 50 ml×20 AT-buffer, 50 ml×20 AT-salts, 10 ml 50% (w/v) glucose, add 890 ml to final volume of 1 liter.) For O.N. at 30° C. in an orbital shaker. Into preheated water agar with 25 ml AT-buffer, and 60 μg/ml X-gal and 5 nM 3-oxo-c8 (both from Sigma-Aldrich) 25 ml of the starter was added. Then, that mixture was loaded on the TLC in glass plate for O.N. incubation in 30° C. The next day the inhibition zone was measured. The bacteria produce blue pigment during QS and when QS is inhibited no pigment is produced. KYC55 (pJZ372) (pJZ384) (pJZ410) preservation in tetracycline (1 μg/ml), spectinomycin (100 μg/ml), gentamicin (100 μg/ml) (all antibiotics from Sigma Aldrich) in AT media O.N. then centrifuged and suspend in 15% glycerol frozen and maintained at −80° C.

[2] = tested on: Agrobacterium tumefaciens (KYC55); test: Quorum sensing inhibition test with bio-reporter KYC55 (TLC overlay); type: cell-based; conditions: for QSI activity against KYC55, in words: running text; for Degree of QSI of KYC55: Table 1, coumaperine derivatives, 40 mM in ~20 μL acetonitrile dried on TLC plate, overnight, color intensity; as to Degree of QSI of KYC55: key: −: no inhibition; +: low inhibition; ++: medium inhibition; +++: strong inhibition; as to Degree of quorum sensing inhibition (QSI), KYC55: key: −: no inhibition; +: low inhibition; ++: medium inhibition; +++: strong inhibition
Procedure: as §1

[3] = Table 2, piperlongumine derivatives

Row | Structure (SMILES) | Degree of quorum sensing inhibition (QSI), CV026 [1, 3] | Degree of quorum sensing inhibition (QSI), KYC55 [2, 3] | Degree of quorum sensing inhibition (QSI), CV026 ([1]; Table 3, curcumin derivatives) | QSI activity against CV026, in words [1] | Degree of quorum sensing inhibition (QSI), KYC55 ([2]; Table 3, curcumin derivatives) | QSI activity against KYC55, in words [2] | Degree of QSI of CV026 [1] | Degree of QSI of KYC55 [2]
1 | COc1cc(/C=C/C(=O)NCCCCC(=O)O)cc(OC)c1OC | − | − |  |  |  |  |  | 
2 | COc1cc(/C=C/C(=O)NCCO)cc(OC)c1OC | − | − |  |  |  |  |  | 
3 | C=CCNC(=O)/C=C/c1cc(OC)c(OC)c(OC)c1 | − | + |  |  |  |  |  | 
4 | COc1cc(/C=C/C(=O)NCCc2ccc(O)cc2)cc(OC)c1OC | − | − |  |  |  |  |  | 
5 | COc1cc(/C=C/C(=O)NCCc2ccc(O)c(O)c2)cc(OC)c1OC | − | − |  |  |  |  |  | 
6 | COc1cc(/C=C/C(=O)N2CCCCC2)cc(OC)c1OC | − | − |  |  |  |  |  | 
7 | COc1cc(/C=C/C(=O)NC(C)C)cc(OC)c1OC | − | − |  |  |  |  |  | 
8 | CCOC(=O)CNC(=O)/C=C/c1cc(OC)c(OC)c(OC)c1 | − | − |  |  |  |  |  | 
9 | COc1cc(/C=C/C(=O)NCC(=O)O)cc(OC)c1OC | − | + |  |  |  |  |  | 
10 | CCNC(=O)/C=C/c1cc(OC)c(O)c(OC)c1 | − | − |  |  |  |  |  | 
11 | COc1cc(/C=C/C(=O)CC(=O)/C=C/c2ccc(OC(C)=O)c(OC)c2)ccc1OC(C)=O [AC-CU, Diacetylated Curcumin] |  |  | − | inactive | − | inactive |  | 
12 | COc1cc(CCC(=O)CC(=O)CCc2ccc(OC(C)=O)c(OC)c2)ccc1OC(C)=O [AC-THC, Diacetylated Tetrahydrocurcumin] |  |  | − | inactive | − | inactive |  | 
13 | O=C(/C=C/C=C/c1ccc(O)cc1)N1CCCCC1 [CP, (2E,4E)-5-(4-hydroxyphenyl)-1-(piperidin-1-yl)penta-2,4-dien-1-one] |  |  |  | low activity |  | inactivity |  | 
14 | COc1ccc(/C=C/C=C/C(=O)N2CCCCC2)cc1OC [CP-10, (2E,4E)-5-(3,4-dimethoxyphenyl)-1-(piperidin-1-yl)penta-2,4-dien-1-one] |  |  |  | inactive |  | inactive | − | −
15 | COc1cc(/C=C/C=C/C(=O)N2CCCCC2)cc(OC)c1OC [CP-27, (2E,4E)-1-(piperidin-1-yl)-5-(3,4,5-trimethoxyphenyl)penta-2,4-dien-1-one] |  |  |  | inactive |  | inactive | − | −
16 | CN(C)c1ccc(/C=C/C=C/C(=O)N2CCCCC2)cc1 [CP-32, (2E,4E)-5-(4-(dimethylamino)phenyl)-1-(piperidin-1-yl)penta-2,4-dien-1-one] |  |  |  | low activity |  | inactivity |  | 
17 | COc1ccc(/C=C/C=C/C(=O)N2CCCCC2)c(OC)c1OC [CP-50, (2E,4E)-1-(piperidin-1-yl)-5-(2,3,4-trimethoxyphenyl)penta-2,4-dien-1-one] |  |  |  | inactive |  | inactive | − | −
18 | COc1ccc(/C=C/C=C/C=C/C(=O)N2CCCCC2)cc1 [CP-102, (2E,4E,6E)-7-(4-methoxyphenyl)-1-(piperidin-1-yl)hepta-2,4,6-trien-1-one] |  |  |  | moderate |  | low | ++ | +
19 | O=C(/C=C/C=C/c1ccc(Cl)cc1)N1CCCCC1 [CP-123, (2E,4E)-5-(4-chlorophenyl)-1-(piperidin-1-yl)penta-2,4-dien-1-one] |  |  |  | inactive |  | low activity | − | +
20 | O=C(/C=C/C=C/c1ccc(OC2CCCC2)cc1)N1CCCCC1 [CP-184, (2E,4E)-5-(4-(cyclopentyloxy)phenyl)-1-(piperidin-1-yl)penta-2,4-dien-1-one] |  |  |  | inactive |  | inactive | − | −
21 | COc1cc(/C=C/C=C/C(=O)N2CCCCC2)cc(OC)c1 [CP-193, (2E,4E)-5-(3,5-dimethoxyphenyl)-1-(piperidin-1-yl)penta-2,4-dien-1-one] |  |  |  | low activity |  | inactivity | + | −
22 | COc1cc(OC)c(/C=C/C=C/C(=O)N2CCCCC2)c(OC)c1 [CP-194, (2E,4E)-1-(piperidin-1-yl)-5-(2,4,6-trimethoxyphenyl)penta-2,4-dien-1-one] |  |  |  | inactive |  | inactive | − | −
23 | O=C(/C=C/C=C/c1ccc(O)c(O)c1)N1CCCCC1 [CP-209, (2E,4E)-5-(3,4-dihydroxyphenyl)-1-(piperidin-1-yl)penta-2,4-dien-1-one] |  |  |  | low activity; also recorded: inactive |  | low activity; also recorded: inactive | + | +
24 | O=C(/C=C/c1ccc(O)c(O)c1)N1CCCCC1 [CP-237, (E)-3-(3,4-dihydroxyphenyl)-1-(piperidin-1-yl)prop-2-en-1-one] |  |  |  | moderate activity |  | moderate activity | ++ | ++
25 | O=C(/C=C/C=C/C=C/c1ccc(O)c(O)c1)N1CCCCC1 [CP-239A, (2E,4E,6E)-7-(3,4-dihydroxyphenyl)-1-(piperidin-1-yl)hepta-2,4,6-trien-1-one] |  |  |  | inactive |  | inactive | − | −
